Data: patent publication US20120040951A1, “HETEROARYL COMPOUNDS USEFUL AS RAF KINASE INHIBITORS” (priority 2008, published 2012)

tested on: phospho-ERK in melanoma derived WM-266-4 cells; assay: Mechanistic cellular assay for Raf kinase activity (phospho-ERK, Bio-Plex); type: cell-based; conditions: Homo sapiens, treated 1-2 hr at 37° C., serum free medium, read-out: pERK EC50
Text: (2) Mechanistic Cellular Assay for Raf Kinase Activity
The following method was utilized for quantifying the amount of phospho-ERK in melanoma derived WM-266-4 cells (one allele each of wild type BRaf and mutant BRaf (V600D) as an indicator of Raf kinase activity in cells treated with various kinase inhibitors.
(1) Detached adhered WM-266-4 cells from flask using 0.25% Trypsin. Resuspended cells in growth media (90% RPMI 1640, 10% FBS) and determine cell density.
(2) Seeded cells @ 10,000 cells/well in 96-well (flat bottom) tissue culture plates (36,000 cells/cm^2). Added growth media to a final volume of 200 uL/well and incubated overnight at 37° C.
(1) Prepared compound dilutions (1000× in DMSO) as follows. Starting with a stock of 5 mM compound in DMSO, diluted serially 3-fold in DMSO for a total of eight concentrations (5 mM, 1.67 mM, 0.556 mM, 0.185 mM, 0.062 mM, 0.021 mM, 0.007 mM, 0.002 mM).
(2) Prepared compound-containing media by adding 1 mL treatment media (100% RPMI 1640 without FBS) to 1 μL of compound dilution (from step 3).
(3) Removed plates (from step 2) from incubator. Aspirated media and replace with 150 μL compound-containing media. Incubate for 1-2 hr at 37° C.
(4) Removed plates (from step 5) from incubator and treated each as follows: aspirated compound-containing media and replaced with 300 μL ice-cold 1×PBS, aspirated PBS and replaced with 45 μL lysis buffer (Biorad Bio-Plex lysis buffer containing 0.4% v/v lysis buff. Factor 1, 0.2% v/v lysis buff. Factor 2, and PMSF to 2 mM final concentration), and then placed plate on ice until all plates were treated.
(5) After all plates were processed (step 6), placed plates on an orbital shaker and shook at room temperature for at least 15 min.
(6) Finally, removed plates from shaker, and transfered 40 μL/well of lysate from each to new corresponding 96-well V-bottom plates. At this point, samples may be frozen and stored @−80 C.°.
(1) Thaw (if necessary) plates (from step 8) and added 40 μL of Phospho-Protein Assay Buffer to each 40 μL lysate for a 1:1 dilution.
(2) Prepared phospho-ERK1,2 Bioplex beads by diluting 1:50 with Bioplex Wash Buffer (mixing 49 μL Wash Buffer with 1 μL of phospho-ERK1,2 Bioplex beads for each sample to be analyzed). Protected from light by wrapping tube in aluminum foil and kept at room temperature.
(3) Prepared Filter Plate by adding 100 μL/well Bioplex Wash Buffer and removed by vacuum filtration.
(4) Add 50 μL of bead solution (from step 10) to each well of a prepared Filter Plate (from step 11) and vacuum filter. Wash/filter 2× with 100 μL/well Wash Buffer.
(5) Added 50 μL of each lysate to appropriate well of the Filter Plate (from step 12). For this and all subsequent plate incubation steps, placed plate on an inverted plate cover (reduces background), and wrapped in aluminum foil (to protect from light). Shook overnight at room temperature. Included positive (control lysate) and negative (lysis buffer) controls.
(1) Prepared detection antibody (phospho-ERK1,2 Ab) by diluting 1:25 with Detection Antibody Dilution Buffer Buffer (mixing 24 μL Detection Antibody Dilution Buffer with 1 μL of phospho-ERK1,2 Ab for each sample to be analyzed).
(2) Removed plate (from step 13) from shaker and vacuum filter. Washed/filter plate 3× with 100 μL/well Wash Buffer. Added 25 μL of diluted antibody to each well. Incubated on shaker at RT for 30-45 min.
(3) Prepared streptavidin-PE by diluting 1:100 with Wash Buffer (mixing 49.5 μL Wash Buffer with 0.5 μL of 100× streptavidin-PE for each sample to be analyzed). Protected from light.
(4) Removed plate (from step 15) from shaker and vacuum filter. Washed/filter plate 3× with 100 μL/well Wash Buffer. Add 50 μL of diluted streptavidin-PE solution (from step 16) to each sample well. Incubated on shaker for 10-20 min.
(5) Removed plate from shaker and vacuum filter. Wash/filter plate 3× with 100 μL/well Bead Resuspension Buffer. After last wash resuspended beads in 125 μL Bead Resuspension Buffer. […]

Structure (SMILES)	EC50
CC(NC(=O)c1cnn2cc(Br)ccc12)c1ncc(C(=O)Nc2cc(C(F)(F)F)c(Cl)cn2)s1 (centres unmarked) [Example 319]	100 to 1000 nM
CC(=N)Nc1nc2cnc(C(=O)NC(C)c3cnc(Nc4ccc(C(F)(F)F)cc4)s3)cc2n1C (centres unmarked) [Example 200]	1000 to 10000 nM
CCNc1cnc2cnc(C(=O)NC(C)c3ncc(Nc4ccc(C(F)(F)F)cc4)s3)cn12 (centres unmarked) [Example 303]	100 to 1000 nM
CC(NC(=O)c1cc2c(cn1)ncn2C1CCN(C)CC1)c1cnc(Nc2ccc(C(F)(F)F)cc2)s1 (centres unmarked) [Example 11]	100 to 1000 nM
C[C@@H](NC(=O)c1cc2c(cn1)ncn2CCS(C)(=O)=O)c1cnc(Nc2ccc(C(F)(F)F)cc2)cn1 [Example 186]	100 to 1000 nM
Cc1ncc(C(=O)N[C@H](C)c2ncc(C(=O)Nc3cc(C(F)(F)F)c(Cl)cn3)s2)n1C [Example 146]	≤ 100 nM
CCn1cnc2cnc(C(=O)N[C@H](C)c3cnc(Nc4ccc(C(F)(F)F)cc4)s3)cc21 [Example 20]	≤ 100 nM
CC(NC(=O)c1cc2c(cn1)ncn2CC(C)(C)C)c1cnc(Nc2ccc(C(F)(F)F)cc2)s1 (centres unmarked) [Example 16]	100 to 1000 nM
CC(NC(=O)c1ccc2[nH]ncc2c1)c1ccc(C(=O)Nc2cccc(C(F)(F)F)c2)s1 (centres unmarked) [Example 195]	1000 to 10000 nM
C[C@@H](NC(=O)c1cnc2n1CC(=O)N2)c1ncc(C(=O)Nc2cc(C(F)(F)F)c(Cl)cn2)s1 [Example 170]	100 to 1000 nM
C[C@@H](NC(=O)c1ccc2nccnc2c1)c1ncc(C(=O)Nc2cc(C(F)(F)F)c(Cl)cn2)s1 [Example 63]	≤ 100 nM
CCn1cnc2cnc(C(=O)NC(C)c3cnc(Nc4ccc(C(F)(F)F)cc4)cn3)cc21 (centres unmarked) [Example 38]	≤ 100 nM
CC(C)S(=O)(=O)N1CC(n2cnc3cnc(C(=O)N[C@H](C)c4cnc(Nc5ccc(C(F)(F)F)cc5)cn4)cc32)C1 [Example 343]	≤ 100 nM
CC(NC(=O)c1cc2c(cn1)ncn2C)c1ncc(C(=O)Nc2cc(C(F)(F)F)c(Cl)cn2)s1 (centres unmarked) [Example 40]	≤ 100 nM
CC(C)Cn1cnc2cnc(C(=O)NC(C)c3cnc(Nc4ccc(C(F)(F)F)cc4)s3)cc21 (centres unmarked) [Example 15]	≤ 100 nM
CC(NC(=O)c1cc2c(cn1)nc(N)n2C)c1cnc(Nc2ccc(C(F)(F)F)nc2)s1 (centres unmarked) [Example 293]	100 to 1000 nM
C[C@@H](NC(=O)c1cnn(-c2ccncc2)c1)c1ncc(C(=O)Nc2cc(C(F)(F)F)c(Cl)cn2)s1 [Example 120]	100 to 1000 nM
CC(NC(=O)c1ccc2cn[nH]c2c1)c1ccc(C(=O)Nc2cccc(C(F)(F)F)c2)s1 (centres unmarked) [Example 194]	1000 to 10000 nM
C[C@@H](NC(=O)c1ccc2c(c1)OCCO2)c1ncc(C(=O)Nc2cc(C(F)(F)F)c(Cl)cn2)s1 [Example 70]	100 to 1000 nM
CC(NC(=O)c1cnn2c1CCCC2)c1cnc(Nc2ccc(C(F)(F)F)cc2)s1 (centres unmarked) [Example 83]	≤ 100 nM
CC(NC(=O)c1cn2c(NC(C)(C)CC(C)(C)C)cnc2cn1)c1ncc(Nc2ccc(C(F)(F)F)cc2)s1 (centres unmarked) [Example 301]	1000 to 10000 nM
C[C@@H](NC(=O)c1cc2c(cn1)ncn2C1CN(S(=O)(=O)CC(F)(F)F)C1)c1cnc(Nc2ccc(C(F)(F)F)cc2)cn1 [Example 344]	100 to 1000 nM
CC(NC(=O)c1cc2c(cn1)ncn2C)c1cnc(Nc2cccc(C(C)(C)C)c2)s1 (centres unmarked) [Example 257]	≤ 100 nM
Cc1[nH]ncc1C(=O)N[C@H](C)c1ncc(C(=O)Nc2cc(C(F)(F)F)c(Cl)cn2)s1 [Example 113]	100 to 1000 nM
CC(NC(=O)c1cnn2cc(-c3cccnc3F)ccc12)c1nc(C(=O)Nc2cc(C(F)(F)F)c(Cl)cn2)cs1 (centres unmarked) [Example 324]	100 to 1000 nM
Cc1nc2cnc(C(=O)NC(C)c3ncc(Nc4ccc(C(F)(F)F)cc4)s3)cn2c1Cl (centres unmarked) [Example 308]	1000 to 10000 nM
CC(NC(=O)c1cccc(N2CCOCC2)c1)c1ncc(C(=O)Nc2cc(C(F)(F)F)c(Cl)cn2)s1 (centres unmarked) [Example 45]	1000 to 10000 nM
C[C@@H](NC(=O)c1c[nH]cn1)c1ncc(C(=O)Nc2cc(C(F)(F)F)c(Cl)cn2)s1 [Example 142]	1000 to 10000 nM
CC(NC(=O)c1cnn2cc(-c3cncnc3)ccc12)c1ncc(C(=O)Nc2cc(C(F)(F)F)c(Cl)cn2)s1 (centres unmarked) [Example 328]	≤ 100 nM
